Laboratory results: paper PMC5988692, “AZ304, a novel dual BRAF inhibitor, exerts anti-tumour effects in colorectal cancer independently of BRAF genetic status” (British Journal of Cancer, 2018)

How the values were obtained:
CSF1R = CSF1R (Homo sapiens, UniProt P07333); experiment: AlphaScreen kinase assay; assay type: biochemical; details: ATP Km
Experimental: (§1) For RAF kinases, detailed assay information was described in ref.[18] Briefly, the kinase activity of BRAF WT, BRAF V600E, or CRAF was measured using an AlphaScreen assay (Perkin Elmer, MA) monitoring MEK1/2 phosphorylation at Ser217/221. For CDK2 and CDK4 kinases, activity was also measured by AlphaScreen, monitoring phosphorylation of biotin Rb peptide at Ser780. Similarly, MAP3K7, CSF1R and JAK2 kinase activity was measured by phosphorylation of their biotinylated substrates MKK6 kinase dead protein at Ser271/Thr275, or tyrosine phosphorylation of pEY or Tyk2 Tyr1054/1055 peptides, respectively. CSK, IGF1R, EGFR, FGFR1 and SRC kinase activity was measured using a sandwich ELISA detecting phosphorylated poly EAY peptide with a HRP conjugated phosphotyrosine antibody and TMB substrate, while p38 kinase activity was measured by monitoring phosphorylation of MBP protein with radiolabeled ^33P-ATP in a filter binding format. All assays were screened under respective ATP Km conditions and inhibitor IC50s were derived from either 5 (RAF kinases, CDK2, CDK4, MAP3K7, JAK2), 10 (CSK, IGF1R, EGFR, FGFR1, SRC) or 11 (p38, CSF1R) point compound dose response.

MAP3K7 = MAP3K7 (Homo sapiens, UniProt O43318); experiment: AlphaScreen kinase assay; assay type: biochemical; details: ATP Km
Experimental: as §1

JAK2 = JAK2 (Homo sapiens, UniProt O60674); experiment: AlphaScreen kinase assay; assay type: biochemical; details: ATP Km
JAK2, sequence (O60674 whole entry, species assumed): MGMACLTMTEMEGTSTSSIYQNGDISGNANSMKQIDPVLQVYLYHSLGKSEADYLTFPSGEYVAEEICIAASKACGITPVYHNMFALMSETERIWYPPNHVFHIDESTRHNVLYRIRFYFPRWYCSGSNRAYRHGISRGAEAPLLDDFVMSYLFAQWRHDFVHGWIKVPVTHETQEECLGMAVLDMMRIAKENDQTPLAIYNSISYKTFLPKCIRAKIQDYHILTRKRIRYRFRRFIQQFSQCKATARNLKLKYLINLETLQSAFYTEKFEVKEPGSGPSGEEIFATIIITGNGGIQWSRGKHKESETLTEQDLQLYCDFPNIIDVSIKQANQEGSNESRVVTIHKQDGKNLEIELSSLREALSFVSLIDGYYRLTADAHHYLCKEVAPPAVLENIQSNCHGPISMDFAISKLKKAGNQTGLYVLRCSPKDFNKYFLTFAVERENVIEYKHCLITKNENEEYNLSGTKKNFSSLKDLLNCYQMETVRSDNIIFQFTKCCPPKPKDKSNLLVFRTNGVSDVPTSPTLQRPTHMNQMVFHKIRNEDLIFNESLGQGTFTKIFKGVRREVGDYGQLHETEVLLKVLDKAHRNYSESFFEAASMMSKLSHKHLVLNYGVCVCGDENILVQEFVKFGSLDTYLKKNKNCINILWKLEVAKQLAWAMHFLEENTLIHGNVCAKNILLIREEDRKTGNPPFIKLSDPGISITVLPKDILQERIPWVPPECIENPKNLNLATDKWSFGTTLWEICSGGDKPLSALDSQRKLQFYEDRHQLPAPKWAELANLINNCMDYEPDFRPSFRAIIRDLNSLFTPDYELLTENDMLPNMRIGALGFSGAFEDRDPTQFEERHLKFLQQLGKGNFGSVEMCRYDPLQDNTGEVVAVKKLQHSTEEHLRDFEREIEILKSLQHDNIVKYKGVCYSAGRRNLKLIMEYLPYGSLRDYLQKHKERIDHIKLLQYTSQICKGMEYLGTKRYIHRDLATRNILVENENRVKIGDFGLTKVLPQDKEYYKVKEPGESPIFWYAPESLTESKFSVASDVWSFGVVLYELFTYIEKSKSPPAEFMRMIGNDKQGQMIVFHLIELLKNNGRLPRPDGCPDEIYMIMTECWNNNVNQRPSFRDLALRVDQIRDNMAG
Experimental: as §1

Caco-2 xenografts = experiment: Xenograft study (tumour growth, immunohistochemistry); assay type: in vivo, athymic BALB/c nude mice
Experimental: (§2) All in vivo experiments were performed in accordance with Institutional Review Board of China Medical University guidelines. Female 4–6 weeks old athymic BALB/c nude mice were purchased from Shanghai SLAC Laboratory Animal Centre (Shanghai, China). RKO/Caco-2 cells (1 × 10^7) in 200 μl PBS were injected subcutaneously into the right scapular region of mice. […] Tumours were measured with a caliper every 2 days, so did body weights. Tumour volume was calculated using the formula V = 1/2 (width^2 × length). Mice were terminated by CO2 inhalation when the tumour diameters reached 1.5 cm, according to the protocol filed with the Guidance of Institutional Animal Care and Use Committee of China Medical University.
(§3) Tumours were formalin-fixed, paraffin-embedded and prepared as described in our previous study for staining with haematoxylin and eosin.[19] […] The staining was evaluated by scanning the entire tissue specimen under low magnification (×10) and confirmed under high magnification (×20 and ×40). The protein expression was visualised and classified based on the percentage of positive cells and the intensity of staining. From each section, five visual fields were randomly selected. The degree of protein expression was based on the percentage of positive cells and the intensity of staining. Staining intensity was scored as 0 (no staining), 1 (low staining), 2 (intermediate staining), and 3 (high staining). For the staining area, ≤5%, 5–25%, 26–50, 51–75% >75% were recorded as 0, 1, 2, 3 and 4 points, respectively. Histological score = staining intensity × staining area. A score 0 was classified as negative (−), 1–4 points as weakly positive (+), 6–12 points as a strong positive (++). Final scores were assigned by two independent pathologists.
(§4) Student’s t-tests were used for statistical analyses. Data are plotted as mean ± SD. […] Tumours were harvested 4 h after dosing on day 10

RKO xenografts = experiment: as above; assay type: in vivo, athymic BALB/c nude mice
Experimental: as §2, §3, §4

BRAF = BRAF (Homo sapiens, UniProt P15056); experiment: AlphaScreen kinase assay (MEK1/2 phosphorylation); assay type: biochemical; details: wild type BRAF, ATP Km
BRAF, sequence (P15056 457-717 limits assumed): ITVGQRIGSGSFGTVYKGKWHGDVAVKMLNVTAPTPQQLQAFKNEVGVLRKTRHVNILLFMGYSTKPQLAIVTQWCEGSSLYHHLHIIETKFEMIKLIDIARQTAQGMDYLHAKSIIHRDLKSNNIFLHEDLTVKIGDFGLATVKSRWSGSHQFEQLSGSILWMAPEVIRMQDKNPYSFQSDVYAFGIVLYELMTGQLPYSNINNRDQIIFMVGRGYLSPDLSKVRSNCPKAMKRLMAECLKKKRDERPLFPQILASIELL
Experimental: as §1

BRAFV600E = BRAFV600E (Homo sapiens, UniProt P15056, V600E); experiment: AlphaScreen kinase assay (MEK1/2 phosphorylation); assay type: biochemical; details: ATP Km
BRAFV600E, sequence (P15056 457-717 V600E limits assumed): as the sequence (P15056 457-717 limits assumed) above, with V144E counted along it
Experimental: as §1

CRAF = CRAF (Homo sapiens, UniProt P04049); experiment: AlphaScreen kinase assay (MEK1/2 phosphorylation); assay type: biochemical; details: wild type CRAF, ATP Km
CRAF, sequence (P04049 349-609 limits assumed): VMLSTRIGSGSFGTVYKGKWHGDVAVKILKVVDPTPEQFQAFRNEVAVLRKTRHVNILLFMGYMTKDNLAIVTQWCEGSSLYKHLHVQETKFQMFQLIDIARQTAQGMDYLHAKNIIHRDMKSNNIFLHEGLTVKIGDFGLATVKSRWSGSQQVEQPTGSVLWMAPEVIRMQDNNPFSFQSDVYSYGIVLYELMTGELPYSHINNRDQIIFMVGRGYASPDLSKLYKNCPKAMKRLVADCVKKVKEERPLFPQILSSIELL
Experimental: as §1

CSK = CSK (Homo sapiens, UniProt P41240); experiment: Sandwich ELISA kinase assay; assay type: biochemical; details: ATP Km
Experimental: as §1

FGFR = FGFR (Homo sapiens, UniProt P11362); experiment: Sandwich ELISA kinase assay; assay type: biochemical; details: ATP Km
FGFR, sequence (P11362 22-822): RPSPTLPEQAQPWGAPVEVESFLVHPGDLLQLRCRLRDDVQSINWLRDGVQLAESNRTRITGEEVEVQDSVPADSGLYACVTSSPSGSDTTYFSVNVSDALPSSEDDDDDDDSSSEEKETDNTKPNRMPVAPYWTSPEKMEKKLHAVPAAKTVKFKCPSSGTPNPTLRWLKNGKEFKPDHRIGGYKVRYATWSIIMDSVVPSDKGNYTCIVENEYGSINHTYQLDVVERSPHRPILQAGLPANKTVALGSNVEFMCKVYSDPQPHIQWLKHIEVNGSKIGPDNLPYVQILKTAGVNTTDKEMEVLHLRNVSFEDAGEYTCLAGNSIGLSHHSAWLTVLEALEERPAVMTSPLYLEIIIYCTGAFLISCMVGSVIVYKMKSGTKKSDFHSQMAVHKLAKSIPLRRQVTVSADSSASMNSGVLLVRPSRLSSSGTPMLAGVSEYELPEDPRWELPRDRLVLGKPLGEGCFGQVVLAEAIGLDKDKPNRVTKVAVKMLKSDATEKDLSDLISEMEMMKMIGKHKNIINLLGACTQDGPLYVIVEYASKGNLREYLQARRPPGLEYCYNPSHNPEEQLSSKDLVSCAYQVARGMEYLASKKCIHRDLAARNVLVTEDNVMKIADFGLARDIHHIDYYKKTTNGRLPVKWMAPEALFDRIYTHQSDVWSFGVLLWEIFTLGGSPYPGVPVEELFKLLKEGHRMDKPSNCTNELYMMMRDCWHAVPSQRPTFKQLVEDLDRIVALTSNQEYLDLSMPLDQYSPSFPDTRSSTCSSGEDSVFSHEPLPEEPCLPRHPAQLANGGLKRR
Experimental: as §1

IGF1R = IGF1R (Homo sapiens, UniProt P08069); experiment: Sandwich ELISA kinase assay; assay type: biochemical; details: ATP Km
IGF1R, sequence (P08069 31-1367, species assumed): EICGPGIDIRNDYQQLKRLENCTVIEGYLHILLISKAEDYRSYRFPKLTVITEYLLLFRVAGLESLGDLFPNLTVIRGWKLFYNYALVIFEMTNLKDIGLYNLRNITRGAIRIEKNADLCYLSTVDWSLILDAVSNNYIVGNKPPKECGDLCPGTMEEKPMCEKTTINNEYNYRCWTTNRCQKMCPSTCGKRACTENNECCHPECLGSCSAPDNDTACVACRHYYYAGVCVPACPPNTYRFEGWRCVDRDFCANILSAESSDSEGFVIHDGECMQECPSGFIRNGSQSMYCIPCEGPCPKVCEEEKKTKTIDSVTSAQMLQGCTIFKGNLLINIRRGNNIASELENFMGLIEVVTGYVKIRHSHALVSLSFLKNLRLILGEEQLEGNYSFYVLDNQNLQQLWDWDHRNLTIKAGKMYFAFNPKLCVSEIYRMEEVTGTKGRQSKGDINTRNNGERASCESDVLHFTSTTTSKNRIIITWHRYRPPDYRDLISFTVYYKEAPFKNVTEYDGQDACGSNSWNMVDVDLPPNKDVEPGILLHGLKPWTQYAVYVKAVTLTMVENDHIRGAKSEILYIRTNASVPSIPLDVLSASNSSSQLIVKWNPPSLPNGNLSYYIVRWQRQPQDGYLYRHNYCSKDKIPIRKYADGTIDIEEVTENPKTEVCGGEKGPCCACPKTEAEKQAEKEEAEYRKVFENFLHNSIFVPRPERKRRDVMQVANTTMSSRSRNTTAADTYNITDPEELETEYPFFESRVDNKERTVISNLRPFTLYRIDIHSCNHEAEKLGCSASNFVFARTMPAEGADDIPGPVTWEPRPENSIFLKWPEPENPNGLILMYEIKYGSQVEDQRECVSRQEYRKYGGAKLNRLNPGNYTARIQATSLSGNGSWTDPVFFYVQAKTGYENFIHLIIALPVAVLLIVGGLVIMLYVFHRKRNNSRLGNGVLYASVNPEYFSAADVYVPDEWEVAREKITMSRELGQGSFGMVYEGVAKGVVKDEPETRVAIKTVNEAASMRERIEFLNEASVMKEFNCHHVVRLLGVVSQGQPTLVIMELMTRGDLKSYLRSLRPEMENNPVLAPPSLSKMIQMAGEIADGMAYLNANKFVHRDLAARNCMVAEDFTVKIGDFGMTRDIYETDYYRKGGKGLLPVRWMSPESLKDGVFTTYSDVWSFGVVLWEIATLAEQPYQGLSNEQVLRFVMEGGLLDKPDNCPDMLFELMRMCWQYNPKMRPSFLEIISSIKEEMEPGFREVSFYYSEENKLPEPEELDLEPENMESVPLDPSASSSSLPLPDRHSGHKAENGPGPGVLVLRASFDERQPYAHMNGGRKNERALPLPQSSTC
Experimental: as §1

EGFR = EGFR (Homo sapiens, UniProt P00533); experiment: Sandwich ELISA kinase assay; assay type: biochemical; details: ATP Km
EGFR, sequence (P00533 25-1210, species assumed): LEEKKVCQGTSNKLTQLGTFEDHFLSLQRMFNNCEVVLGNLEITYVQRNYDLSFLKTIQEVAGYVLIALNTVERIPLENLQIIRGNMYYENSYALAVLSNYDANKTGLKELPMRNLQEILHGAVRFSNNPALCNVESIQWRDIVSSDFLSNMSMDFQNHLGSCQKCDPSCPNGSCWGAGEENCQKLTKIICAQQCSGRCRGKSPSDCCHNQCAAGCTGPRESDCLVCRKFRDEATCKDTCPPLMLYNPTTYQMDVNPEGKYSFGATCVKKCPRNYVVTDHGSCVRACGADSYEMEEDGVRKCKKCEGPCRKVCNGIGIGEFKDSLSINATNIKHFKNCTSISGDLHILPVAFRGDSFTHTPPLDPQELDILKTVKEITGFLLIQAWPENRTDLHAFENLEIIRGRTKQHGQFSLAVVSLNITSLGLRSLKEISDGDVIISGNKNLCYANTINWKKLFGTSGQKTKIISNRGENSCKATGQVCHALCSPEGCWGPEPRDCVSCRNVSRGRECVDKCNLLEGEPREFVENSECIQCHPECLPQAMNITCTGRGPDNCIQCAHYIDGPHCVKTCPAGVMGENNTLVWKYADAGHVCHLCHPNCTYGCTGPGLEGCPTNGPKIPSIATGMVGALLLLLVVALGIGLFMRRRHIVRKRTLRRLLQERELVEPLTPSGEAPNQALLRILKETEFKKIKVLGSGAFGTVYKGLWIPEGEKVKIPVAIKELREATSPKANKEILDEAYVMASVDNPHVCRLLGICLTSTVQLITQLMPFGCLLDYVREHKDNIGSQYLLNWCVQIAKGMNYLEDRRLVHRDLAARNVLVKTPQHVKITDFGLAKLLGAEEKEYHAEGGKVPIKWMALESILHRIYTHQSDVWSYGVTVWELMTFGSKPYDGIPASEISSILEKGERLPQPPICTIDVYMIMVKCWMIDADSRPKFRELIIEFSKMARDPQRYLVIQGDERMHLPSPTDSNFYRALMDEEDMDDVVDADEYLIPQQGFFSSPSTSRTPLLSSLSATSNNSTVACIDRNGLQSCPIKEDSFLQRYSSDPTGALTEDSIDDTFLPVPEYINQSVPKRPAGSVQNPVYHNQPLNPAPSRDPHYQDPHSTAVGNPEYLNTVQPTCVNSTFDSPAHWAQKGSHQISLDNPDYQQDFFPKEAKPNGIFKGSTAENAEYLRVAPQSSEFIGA
Experimental: as §1

SRC = SRC (Homo sapiens, UniProt P12931); experiment: Sandwich ELISA kinase assay; assay type: biochemical; details: ATP Km
Experimental: as §1

CDK4 = CDK4 (Homo sapiens, UniProt P11802); experiment: AlphaScreen kinase assay (Rb peptide); assay type: biochemical; details: ATP Km
Experimental: as §1

CDK2 = CDK2 (Homo sapiens, UniProt P24941); experiment: AlphaScreen kinase assay (Rb peptide); assay type: biochemical; details: ATP Km
Experimental: as §1

[1] = Caco-2 xenograft tumours, day 10, 4 h after dosing, score = staining intensity × staining area
[2] = RKO xenograft tumours, day 10, 4 h after dosing, score = staining intensity × staining area

## COc1ccc2c(Nc3cc(NC(=O)c4cccc(C(C)(C)C#N)c4)ccc3C)ncnc2c1 [AZ304]
CSF1R
  IC50: 0.035 µM
MAP3K7
  IC50: 6.4 µM
JAK2
  IC50: > 10 µM
Caco-2 xenografts; [1]
  Ki67 histological score: 3.2 ±0.84
  p-AKT histological score: 6.8 ±1.10
  p-EGFR histological score: 10.6 ±1.95
  p-ERK histological score: 4.8 ±1.10
Caco-2 xenografts; Caco-2 xenograft, AZ304 10 mg/kg oral twice daily, Cetuximab 40 mg/kg i.p. twice per week, 10 days, vs vehicle
  tumour growth: reduced tumour growth
RKO xenografts; [2]
  Ki67 histological score: 4.8 ±1.10
  p-AKT histological score: 4.2 ±2.28
  p-EGFR histological score: 10 ±1.87
  p-ERK histological score: 3.2 ±1.10
RKO xenografts; RKO xenograft, AZ304 10 mg/kg oral twice daily, Cetuximab 40 mg/kg i.p. twice per week, 10 days, vs vehicle
  tumour growth: reduced tumour growth
BRAF
  IC50: 0.079 µM
BRAFV600E
  IC50: 0.038 µM
CRAF
  IC50: 0.068 µM
CSK
  IC50: 7.05 µM
FGFR
  IC50: > 10 µM
IGF1R
  IC50: > 10 µM
EGFR
  IC50: > 10 µM
SRC
  IC50: > 10 µM
CDK4
  IC50: > 10 µM
CDK2
  IC50: > 10 µM
